Data reported in patent US10739304B2, “Organic transistor-based system for electrophysiological monitoring of cells and method for the monitoring of the cells” (UNIVERSITA DEGLI STUDI DI CAGLIARI, priority 2015, dated 2020).

System: rat cardiomyocytes culture
Assay: Spontaneous electrical (beating) activity of rat cardiomyocyte culture recorded with the organic transistor (OCMFET) system, pharmacological modulation
Type: cell-based
Conditions: 100 μM; for beating frequency modulation: spike-count on 4 min: rat cardiomyocytes culture (8 DIV) at 37° C., Verapamil added after Norepinephrine, statistics on 5 transistors, average and standard deviation, basal 129±4.6; for chemical tuning of the culture's spontaneous activity (drain current vs time): rat cardiomyocytes culture at 37° C., Norepinephrine first, then Verapamil
Description: The system 100 was able to detect the occurrence of the signals (similarly to what MEA-based devices do), the beat rate and its rapid changing related to pharmacological modulations, obtained by applying both positive and negative chronotropic compounds (according to the method described in Simpson, P. Stimulation of hypertrophy of cultured neonatal rat heart cells through an alpha 1-adrenergic receptor and induction of beating through an alpha 1- and beta 1-adrenergic receptor interaction. Evidence for independent regulation of growth and beating. Circ. Res. 56, 884-894 (1985); Yonemochi, H., Saikawa, T., Takakura, T., Ito, S., Takaki, R. Effects of calcium antagonist on β-receptors of cultured cardiac myocytes isolated from neonatal rat ventricle. Circulation 81, 1401-1408 (1990)). In FIG. 13 an example of extracellular action potentials measured, with an organic transistor 10 is shown. Considering a p-type organic transistor and a first inverting stage of the readout electronics, the shape of the single signal shown in FIG. 13 is consistent with the expected current fluctuation caused by the ionic charge displacement in the early phase of the cardiac action potential. The drain current IDS fluctuation is driven by the fast movement of Na+ ions occurring at the very beginning of the intracellular action potential.
Systematic measurements by recording the spontaneous electrophysiological activity of rat cardiomyocytes (8 Days InVitro—DIV) by means of the system 100 (FIG. 14) have been performed.
All the measurements relative to the pharmacological modulation of the electrical activity were performed while maintaining the culture at constant temperature (37° C.) and the same reliable results were obtained in five recording devices simultaneously.

Structure (SMILES) | beating frequency modulation: spike-count on 4 min | chemical tuning of the culture's spontaneous activity (drain current vs time)
NC[C@H](O)c1ccc(O)c(O)c1 [Norepinephrine] | 280±28.6 | accelerated
COc1ccc(CCN(C)CCCC(C#N)(c2ccc(OC)c(OC)c2)C(C)C)cc1OC (stereo not shown) [Verapamil] | 15±1.9 | suppressed
